From US11654036B2, “Anticoagulant compounds and methods and devices for their use” (priority 2020, dated 2023)
Where two headings read alike, the source gives them in different places.

Columns and labels:
[1] = test system: Calcium-reconstituted sheep blood; assay: Activated clotting time (ACT); conditions: individual drug at 0.6 ng/mg
Description: The activated clotting time (ACT) evaluation of anticoagulants was performed in Calcium-reconstituted sheep blood and recorded employing the Hemochron® Response device. […] A target amount of drug solution was then added into the test tube. […] The tube was gently shaken before being inserted into the Hemochron Response detector. The ACT read out was recorded and reported. The ACT of the control blood in the absence of any drug as first determined to establish a baseline. Then ACT was determined in the presence of different concentrations of the drug as a single component. Selected drug combinations, were then tested to evaluate for potential synergy in action between the two drugs.

[2] = Tissue drug concentration in stented and adjacent artery segments (LCMS); type: in vivo, porcine; conditions: pig, artery tissue adjacent to the stented segment, other: drug eluting stent implanted in coronary artery, Table 4B, stent arm not named; for concentration at 3 h: within 3 hours; for concentration at 28 days: within 28 days; for concentration at 90 days: within 90 days
Text: The stented artery was cut longitudinally with surgical scissors. The stents were separated from the tissue.

[3] = Coated balloon tissue concentration in vivo (Table 7); set-up: species or system porcine; conditions: for concentration at 15 min: 300 μg
Text: The balloon (e.g., the balloon of a balloon-catheter of a stent-delivery system) was advanced to a site to be treated (e.g., an occluded or weakened section of a blood vessel to be opened up or supported by a stent) in the body of a subject and inflated to a desired inflation diameter. Before, during, and/or after inflation of the balloon, the balloon released the therapeutic composition to, into, or at the treatment site, or to, into, or at an area adjacent thereto, by any suitable mechanism (e.g., concentration gradient, diffusion, pressure, or mechanical force, or a combination thereof). […] The tissue concentration is shown in ng/mg tissue. The coated balloons were evaluated for drug delivery efficiency in an animal study. Drug transfer of the coated balloons into arterial segments were evaluated using harvested pig arteries. The arterial wall was separated after animal study. The arterial walls were then stored in an individual labeled vial. All samples were kept on dry ice until stored in the −80° C. freezer. All samples were then frozen to […] prior to being analyzed.

[4] = test system: Tissue factor generated antiplatelet; conditions: cited from earlier work
[5] = test system: Human Aortic SMC (HAoSMC); assay: HAoSMC cell proliferation assay; type: cell-based; conditions: 72 hours incubation

| concentration at 3 h [2] [ng/g] | concentration at 28 days [2] [ng/g] | Structure (SMILES) | ACT [1] | IC50 [4] [nM] | IC50 for Tissue factor generated antiplatelet [4] [ng/mg] | concentration at 90 days [2] [ng/g] | other results |
| --- | --- | --- | --- | --- | --- | --- | --- |
| – | – | COc1ccc(-n2nc(C(N)=O)c3c2C(=O)N(c2ccc(N4CCCCC4=O)cc2)CC3)cc1 [Apixaban] | 522 | – | – | – | – |
| ~21000 | ~340 | O=C(NC[C@H]1CN(c2ccc(N3CCOCC3=O)cc2)C(=O)O1)c1ccc(Cl)s1 [Rivaroxaban] | – | 312 | 0.136 | – | concentration at 1 h ([2]; within one hour from injury and/or implant): ~38000 ng/g; concentration at 15 min ([3]; pig, Superficial Femoral Artery (SFA) tissue, within or at 15 minutes, read-out: tissue concentration of tissue adjacent to the balloon treated segment): ≥ 40600 ng/g; concentration at 15 min ([3]; pig, coronary artery tissue, within or at 15 min, read-out: tissue concentration of tissue adjacent to the balloon treated segment): ≥ 1230 ng/g |
| – | – | CC1CNc2c(cccc2S(=O)(=O)N[C@@H](CCCNC(=N)N)C(=O)N2CC[C@@H](C)C[C@@H]2C(=O)O)C1 (some centres unmarked) [Argatroban] | 301 | 79 | 0.04 | ~3740 | HAoSMC proliferation inhibition [5]: small to no inhibition |
| ~27000 | ~940 | CO[C@H]1C[C@@H]2CC[C@@H](C)[C@@](O)(O2)C(=O)C(=O)N2CCCC[C@H]2C(=O)O[C@H]([C@H](C)C[C@@H]2CC[C@@H](O)[C@H](OC)C2)CC(=O)[C@H](C)/C=C(\C)[C@@H](O)[C@@H](OC)C(=O)[C@H](C)C[C@H](C)/C=C/C=C/C=C/1C [Sirolimus, rapamycin (also called sirolimus)] | – | – | – | ~1280 | concentration at 7 days ([3]; pig, coronary artery tissue, within or at 7 days, read-out: tissue concentration of tissue adjacent to the balloon treated segment): ≥ 1450 ng/g |
| – | – | CO[C@@H]1C[C@H](C[C@@H](C)[C@@H]2CC(=O)[C@H](C)/C=C(\C)[C@@H](O)[C@@H](OC)C(=O)[C@H](C)C[C@H](C)/C=C/C=C/C=C(\C)[C@@H](O)C[C@@H]3CC[C@@H](C)[C@@](O)(O3)C(=O)C(=O)N3CCCC[C@H]3C(=O)O2)CC[C@H]1O [Novolimus, 16-O-desmethyl-rapamycin] | – | – | – | – | tissue concentration of tissue adjacent to the balloon treated segment ([3]; Superficial Femoral Artery (SFA) tissue, within or at 6 hours): at least 5.94 ng/mg; tissue concentration of tissue adjacent to the balloon treated segment ([3]; Superficial Femoral Artery (SFA) tissue, within or at 3 day): at least 4.4 ng/mg; tissue concentration of tissue adjacent to the balloon treated segment ([3]; Superficial Femoral Artery (SFA) tissue, within or at 7 days): at least 1.16 ng/mg; tissue concentration of tissue adjacent to the balloon treated segment ([3]; coronary artery tissue, within or at 6 hours): at least 6.52 ng/mg; tissue concentration of tissue adjacent to the balloon treated segment ([3]; coronary artery tissue, within or at 3 day): at least 3.77 ng/mg; tissue concentration of tissue adjacent to the balloon treated segment ([3]; coronary artery tissue, within or at 7 days): at least 1.47 ng/mg |
